# Data as given in patent publication US4675405A, “Quinoline compounds as antiallergic and antithrombotic agents” (American Home Products Corporation, priority 1986, dated 1987).
# Columns and labels:
# [1] = system: LTB4 synthesis (lipoxygenase); assay: inhibition of LTB4 (5,12-diHETE) synthesis by rat glycogen-elicited polymorphonuclear leukocytes; format: cell-based; details: Leukocyte; rat PMN, A23187 + [14C]arachidonic acid; read-out: 50% Inhibitory Concentration (IC50) LTB4
# Protocol: (§1) This is especially true with respect to 5,12-diHETE, which is also denoted as LTB4 [see Ford-Hitchinson, J. Roy. Soc. Med., 74, 831 (1981)]. The assay of this Example measures the ability of the compounds of the inventin to inhibit the synthesis of 5HETE and LTB4 by rat glycogen-elicited polymorphonuclear leukocytes.
# (§2) Peritoneal PMN are obtained from female Wistar rats (150-250 g) that received an i.p. injection of 6% glycogen (10 ml). After 24 hours, rats are killed by CO2 asphyxiation and peritoneal cells are harvested by peritoneal lavage using Ca^++ and Mg^++ free Hanks' balanced salt solution (HBSS). The peritoneal exudate is centrifuged at 400 g for 10 minutes. After centrifugation, the lavaged fluid is removed and the cell pellet is resuspended in HBSS containing Ca^++ and Mg^++ and 10 mM L-cysteine at a concentration of 2×10^7 cells/ml. To 1 ml portions of cell suspension, test drugs or vehicle are added and incubated at 37° C. for 10 minutes. Following this preincubation, the calcium ionophore (10 μM), A23187, is added together with 0.5 μCi [^14 C] arachidonic acid and further incubated for 10 minutes. […] After chromatography, the areas associated with 5-HETE and 5,12-diHETE standards are identified by autoradiography, cut out and quantitated by liquid scintillation.
# (§3) Results are expressed as % inhibition of [^14 C]5-HETE and [^14 C]LTB4 (5,12-HETE)synthesis. […]
# [2] = system: 5-HETE synthesis (lipoxygenase); assay: inhibition of 5-HETE synthesis by rat glycogen-elicited polymorphonuclear leukocytes; format: cell-based; details: for IC50: Leukocyte, rat PMN, A23187 + [14C]arachidonic acid, read-out: 50% Inhibitory Concentration (IC50) 5-HETE
# Protocol: as §1
# (§4) Peritoneal PMN are obtained from female Wistar rats (150-250 g) that received an i.p. injection of 6% glycogen (10 ml). After 24 hours, rats are killed by CO2 asphyxiation and peritoneal cells are harvested by peritoneal lavage using Ca^++ and Mg^++ free Hanks' balanced salt solution (HBSS). The peritoneal exudate is centrifuged at 400 g for 10 minutes. After centrifugation, the lavaged fluid is removed and the cell pellet is resuspended in HBSS containing Ca^++ and Mg^++ and 10 mM L-cysteine at a concentration of 2×10^7 cells/ml. To 1 ml portions of cell suspension, test drugs or vehicle are added and incubated at 37° C. for 10 minutes. Following this preincubation, the calcium ionophore (10 μM), A23187, is added together with 0.5 μCi [^14 C] arachidonic acid and further incubated for 10 minutes. The reaction is stopped by the addition of ice cold water (3 ml) and acidifying to pH 3.5. Lipoxygenase products are then extracted twice into diethyl ether. The pooled ether extracts are evaporated to dryness under nitrogen and the residue is redissolved in a small volume of methanol and spotted on aluminum backed pre-coated thin layer chromatographic plates. The samples are them co-chromatographed with authentic reference 5-HETE, 12-HETE and 5,12-diHETE in the solvent system--hexane:ether:acetic acid (50:50:3). After chromatography, the areas associated with 5-HETE and 5,12-diHETE standards are identified by autoradiography, cut out and quantitated by liquid scintillation.
# Results are expressed as % inhibition of [^14 C]5-HETE and [^14 C]LTB4 (5,12-HETE)synthesis. [formula]
# Testing compounds of the invention in this assay and using the antioxident 3-amino-1-[m-(trifluoromethyl)phenyl]-2-pyrazoline (BW755C) as a standard, the following results are obtained.
# [3] = system: TxB2 synthesis (cyclooxygenase); assay: inhibition of synthesis of the cyclooxygenase oxidation product TxB2 by rat PMN; format: cell-based
# Protocol: as §4
# The procedure of Example 5 is also employed for the determination of the ability of the compounds of the invention to inhibit the synthesis of the arachidonic acid cyclooxygenase oxidation product TxB2.
# In this assay, the procedure of Example 5 is carried out as described. However, in order to determine cyclooxygenase activity, the samples are cochromatographed with authentic reference TxB2 in the solvent system ethyl acetate:formic acid (80:1) and the upper phase of ethyl acetate:isoctane:acetic acid:water (110:50:20:100). After chromatography, the areas associated with TxB2 standard are identified by autoradiography, cut out and quantitated by liquid scintillation techniques.
# The results are calculated as in Example 5.
# [4] = system: LTD4 induced bronchospasm; assay: in vivo inhibition of LTD4 induced bronchospasm in guinea pigs; parameters: species or system guinea pig; details: for % Inhibition (Statistical Average), Overflow Volume at 1 min. / % Inhibition (Statistical Average), Overflow Volume at 3 min. / % Inhibition (Statistical Average), Overflow Volume at 5 min.: 10 minutes before LTD4
# Protocol: The assay of this Example measures the in vivo ability of the compounds of the invention to inhibit the bronchospasm induced in guinea pigs by the exogenously administered leukotrienes C4 and/or D4. This assay is essentially a measure of the SRS-A antagonist properties of the compounds tested.
# Male Hartley strain guinea pigs (350-600 g) are anesthetized with pentobarbital sodium (50 mg/kg, i.p.). The jugular vein is cannulated for injection of drugs and the carotid artery for monitoring blood pressure. The trachea is cannulated for artificial ventilation by a miniature Starling pump and for indirect measurement of respiratory volume changes as described infra. Additional pentobarbital sodium (15 mg/kg, i.v.) is administered to arrest spontaneous respiration. Submaximal bronchoconstrictor responses are established in control animals by varying the dose-levels of leukotriene. Intravenous dose-levels for LTC4 range from 1 to 2 μg/kg and for LTD4 the range is from 0.3 to 1 μg/kg. The aerosol bronchoprovocation dose for LTC4 is generated from 1.6 μM solution and for LTD4 from a 2.0 μM solution.
# Test drugs are administered either intravenously, intragastrically, by aerosol or orally at 1 or 10 minutes before induction of bronchospasm by administration of either LTC4 or LTD4 at the predetermined dose-levels. Aerosols of soluble drugs or leukotrienes are produced in-line for 10 seconds only by actuation of an ultrasonic nebulizer (Monaghan). Aerosolized drug dosage is expressed in terms of solution concentration and by a fixed aerosol exposure time (approximately 10 seconds). Control animals receive saline in place of drug.
# (§5) Respiratory volume changes are determined by a calibrated piston whose travel is recorded, via a linear transducer, on a Beckman Dynograph recorder. Maximal bronchoconstrictor volume is determined by clamping off the trachea at the end of the experiment. Overflow volumes at 1, 3 and 5 minutes are obtained from the recorded charts.
# The overflow volume at 1, 3 and 5 minutes is expressed as a percentage of maximal bronchoconstriction. Combined group values are used from each of these time intervals to determine the inhibitory effect of drugs. [formula] Students t-test for unpaired data is used to determine statistical significance. Dose reponse curves are generated and ED50 doses are interpolated from the regression lines.
# Results for compounds of the invention in this assay, using LTD4 for induction of bronchospasm, are given below:
# Two other compounds of this invention are tested in this assay and the results are expressed based on the following calculations which employ the values obtained for the overflow volumes at 1, 3 and 5 minutes:
# Area under the volume overflow curve (AUC) is estimated, using the overflow values at 1, 3 and 5 minutes, and expressed as a percentage of the maximal overflow AUC (equation 1): [formula] Drug effects are reported as percent inhibition of % max AUC values obtained from appropriate control animals (equation 2): [formula]
# Student's t-test for unpaired data is used to determine statistical significance (p<0.05). IC50 values can also be determined by inverse prediction from linear regression lines through points between 10 and 90% inhibition.
# [5] = system: 5-HETE and LTB4 synthesis (lipoxygenase); assay: inhibition of synthesis of lipoxygenase products 5-HETE and LTB4 by rat PMN (product not separately stated); format: cell-based
# Protocol: as §1, §2, §3
# [6] = system: ovalbumin induced bronchospasm; assay: in vivo inhibition of ovalbumin induced bronchospasm mediated by endogenous mediators in sensitized guinea pigs; parameters: species or system guinea pig; details: 10 minutes before i.v. ovalbumin challenge
# Protocol: The assay of this Example measures the in vivo ability of the compounds of the invention to inhibit the bronchospasm induced in guinea pigs by endogenous mediators of the bronchoconstriction.
# Male Hartley strain guinea pigs weighing 250-350 g are sensitized to chicken ovalbumin (OA) (10 mg i.p.) on days 1 and 3 and used starting on day 26. The animals are anesthetized with pentobarbital sodium (50 mg/kg, i.p.), bilateral vagotomy is performed, and the jugular vein is cannulated for injection of drugs and the carotid artery for monitoring blood pressure. The trachea is cannulated for artificial ventilation by miniature Starling pump and for indirect measurement of respiratory volume changes as described, infra. Succinylcholine (2 mg/kg, i.v.) is administered to arrest spontaneous respiration. […]
# as §5, with “volumes at minutes 1, 3” for “volumes at 1, 3”, “and 5 are obtained” for “and 5 minutes are obtained”
# Area under the volume overflow curve (AUC) is estimated, using the overflow values at 1, 3 and 5 minutes, and expressed as a percentage of the maximal overflow AUC (equation 1): [formula] […]
smiles,measurement,setting,value
"NC1=NN(c2cccc(C(F)(F)F)c2)CC1 [BW755C, 3-amino-1-[m-(trifluoromethyl)phenyl]-2-pyrazoline, reference compound]",IC50,[1],30 µM
same,IC50,[2],43 µM
"CCS(=O)(=O)Nc1cccc(OCc2ccc3ccccc3n2)c1 [Example 2A, N-[3-[(2-Quinolinyl)methoxy]phenyl]ethane sulfonamide]",% Inhibition at 100 μm (TxB2 synthesis),[3],56%
same,"% Inhibition (Statistical Average), Overflow Volume at 1 min.",[4]; 50 mg/kg intraduodenal,88%
same,"% Inhibition (Statistical Average), Overflow Volume at 3 min.",[4]; 50 mg/kg intraduodenal,86%
same,"% Inhibition (Statistical Average), Overflow Volume at 5 min.",[4]; 50 mg/kg intraduodenal,81%
same,"% Inhibition at 100 μm (first value, 5-HETE by column order)",[2]; 100 μm,93%
"CCCCS(=O)(=O)Nc1cccc(OCc2ccc3ccccc3n2)c1 [Example 2B, N-[3-[(2-Quinolinyl)methoxy]phenyl]-1-butane sulfonamide]",% Inhibition at 100 μm (TxB2 synthesis),[3],73%
same,"% Inhibition (Statistical Average), Overflow Volume at 1 min.",[4]; 50 mg/kg intraduodenal,08%
same,"% Inhibition (Statistical Average), Overflow Volume at 3 min.",[4]; 50 mg/kg intraduodenal,41%
same,"% Inhibition (Statistical Average), Overflow Volume at 5 min.",[4]; 50 mg/kg intraduodenal,41%
same,IC50,[1],2.1 µM
same,IC50,[2],1.6 µM
"CCS(=O)(=O)Nc1cccc(OCc2ccc3ccccc3c2)c1 [Example 2C, N-[3-[(2-Naphthalenyl)methoxy]phenyl]ethane sulfonamide]","% Inhibition (Statistical Average), Overflow Volume at 1 min.",[4]; 50 mg/kg intraduodenal,61%
same,"% Inhibition (Statistical Average), Overflow Volume at 3 min.",[4]; 50 mg/kg intraduodenal,41%
same,"% Inhibition (Statistical Average), Overflow Volume at 5 min.",[4]; 50 mg/kg intraduodenal,53%
"CCS(=O)(=O)Nc1cccc(OCc2cc3ccccc3s2)c1 [Example 2D, N-[3-[(2-Benzo[b]thienyl)methoxy]phenyl]ethane sulfonamide]",50% Inhibition at 50 μm (TxB2 synthesis),[3],+ (inhibition of >50%)
same,% Inhibition of Max AUC,"[4]; 50 mg/kg intraduodenal, 10 minutes before induction of bronchospasm",13%
same,>50% Inhibitory at 50 μm,[5],+ (inhibition of >50%)
"CCCS(=O)(=O)Nc1cccc(OCc2cc3ccccc3s2)c1 [Example 2E, N-[3-[(2-Benzo[b]thienyl]methoxy]phenyl]-1-propane sulfonamide]",50% Inhibition at 50 μm (TxB2 synthesis),[3],+ (inhibition of >50%)
same,>50% Inhibitory at 50 μm,[5],+ (inhibition of >50%)
"O=S(=O)(Nc1cccc(OCc2ccc3ccccc3n2)c1)C(F)(F)F [Example 3, N-[3-[(2-Quinolinyl)methoxy]phenyl]trifluoromethane sulfonamide]",% Inhibition,[4]; 25 mg/kg administered intragastrically,98%
same,ED50,"[4]; Cavia porcellus, po, administered intragastrically, LTD4 induced bronchospasm, read-out: IC50 (the source's name)",0.1 mg/kg
same,% Inhibition,[6]; 25 mg/kg intragastric,97%
same,ED50,"[6]; Cavia porcellus, 10 min, intragastric, read-out: IC50 (the source's name)",0.6 mg/kg
